According to patent publication US20220168307A1, “TREATMENT OF SMA” (Hoffmann-La Roche Inc., priority 2019, published 2022):
Values joined by “and” are separate entries in the source; they are usually repeats but may differ in a detail not shown here. Equal entries are not always repeated. “Also recorded” adds a separate entry of the source. Where two headings read alike, the source gives them in different places.

Columns and labels:
CYP2D6 [1] = biological target: T1, CYP2D6 (Homo sapiens, UniProt P10635)
T1 sequence (P10635 whole entry): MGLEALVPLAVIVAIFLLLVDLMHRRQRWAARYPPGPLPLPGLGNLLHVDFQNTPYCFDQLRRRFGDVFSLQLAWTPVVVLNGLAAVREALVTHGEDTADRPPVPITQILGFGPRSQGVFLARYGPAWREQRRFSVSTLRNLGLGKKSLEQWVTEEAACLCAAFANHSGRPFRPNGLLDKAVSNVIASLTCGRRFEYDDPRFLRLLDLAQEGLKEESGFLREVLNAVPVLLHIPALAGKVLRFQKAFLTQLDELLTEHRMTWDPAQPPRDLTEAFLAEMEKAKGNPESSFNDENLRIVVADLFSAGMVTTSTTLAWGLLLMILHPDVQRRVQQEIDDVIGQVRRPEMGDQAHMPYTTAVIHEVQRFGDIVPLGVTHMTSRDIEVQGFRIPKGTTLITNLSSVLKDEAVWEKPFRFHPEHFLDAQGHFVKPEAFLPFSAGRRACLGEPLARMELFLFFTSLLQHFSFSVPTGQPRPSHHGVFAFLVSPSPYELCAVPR

CYP2C19 [2] = biological target: T2, CYP2C19 (Homo sapiens, UniProt P33261); assay: Direct inhibition of CYP2C19 ((S)-mephenytoin) in human liver microsomes
T2 sequence (P33261 whole entry): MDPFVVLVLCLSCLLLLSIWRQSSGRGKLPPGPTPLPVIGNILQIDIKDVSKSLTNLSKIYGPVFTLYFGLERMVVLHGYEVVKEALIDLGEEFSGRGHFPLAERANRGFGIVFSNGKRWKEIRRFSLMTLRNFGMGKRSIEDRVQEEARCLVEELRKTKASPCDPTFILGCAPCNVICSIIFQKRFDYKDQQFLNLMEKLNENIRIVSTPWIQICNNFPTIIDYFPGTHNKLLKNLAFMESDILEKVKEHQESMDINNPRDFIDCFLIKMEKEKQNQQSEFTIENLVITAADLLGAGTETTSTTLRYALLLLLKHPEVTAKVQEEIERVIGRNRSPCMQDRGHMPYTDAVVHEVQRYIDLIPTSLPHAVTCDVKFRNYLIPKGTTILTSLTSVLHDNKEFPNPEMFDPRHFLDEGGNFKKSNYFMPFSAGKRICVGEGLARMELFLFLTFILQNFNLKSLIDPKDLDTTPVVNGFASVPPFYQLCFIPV

CYP2C19 [3] = biological target: T2, CYP2C19; assay: in vitro; settings: pooled human liver microsomes, pH 7.4, probe (S)-mephenytoin
CYP2C9 = CYP2C9 (Homo sapiens, UniProt P11712); assay: Time-dependent inhibition (IC50 shift) of CYP2C9 in human liver microsomes; type: in vitro ADME; settings: risdiplam up to 12.5 μM
Sequence of CYP2C9 (P11712 whole entry): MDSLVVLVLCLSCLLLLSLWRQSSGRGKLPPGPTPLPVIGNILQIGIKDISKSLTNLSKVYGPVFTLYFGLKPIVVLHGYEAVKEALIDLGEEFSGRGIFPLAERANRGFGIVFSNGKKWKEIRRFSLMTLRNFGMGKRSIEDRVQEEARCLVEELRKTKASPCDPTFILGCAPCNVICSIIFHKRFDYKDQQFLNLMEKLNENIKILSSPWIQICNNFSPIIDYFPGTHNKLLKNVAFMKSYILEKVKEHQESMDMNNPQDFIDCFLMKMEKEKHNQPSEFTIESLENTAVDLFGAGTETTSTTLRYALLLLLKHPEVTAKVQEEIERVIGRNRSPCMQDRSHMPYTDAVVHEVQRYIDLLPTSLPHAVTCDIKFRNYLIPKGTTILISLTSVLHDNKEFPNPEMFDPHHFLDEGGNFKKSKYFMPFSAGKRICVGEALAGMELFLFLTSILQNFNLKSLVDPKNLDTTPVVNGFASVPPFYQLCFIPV
Description: (§1) Donors CMV negative for serology are unm
(§2) All incubations were conducted in duplicate.
(§3) % remaining=(C+I/C^−I)*100

CYP3A4 [4] = biological target: T3, CYP3A4 (Homo sapiens, UniProt P08684); assay: in vitro; settings: for % Remaining: duplicates; for IC50: human, microsomes, 30 min pre-incubation
T3 sequence (P08684 2-503): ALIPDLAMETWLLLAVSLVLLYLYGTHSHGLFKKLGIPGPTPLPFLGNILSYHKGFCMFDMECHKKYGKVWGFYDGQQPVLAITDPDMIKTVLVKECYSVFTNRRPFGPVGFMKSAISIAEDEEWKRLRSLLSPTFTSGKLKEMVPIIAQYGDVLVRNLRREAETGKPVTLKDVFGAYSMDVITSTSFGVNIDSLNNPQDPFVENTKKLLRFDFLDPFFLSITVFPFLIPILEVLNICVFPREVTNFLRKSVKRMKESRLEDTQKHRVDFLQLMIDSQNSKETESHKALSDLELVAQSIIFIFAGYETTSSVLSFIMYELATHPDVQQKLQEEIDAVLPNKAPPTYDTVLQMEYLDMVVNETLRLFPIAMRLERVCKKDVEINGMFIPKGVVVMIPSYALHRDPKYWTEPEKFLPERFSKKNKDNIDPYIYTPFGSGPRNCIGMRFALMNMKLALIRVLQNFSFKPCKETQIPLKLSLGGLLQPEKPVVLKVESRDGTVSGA
Description: as §1, §2, §3

CYP2C19 [5] = biological target: T2, CYP2C19; assay: biochemical
CYP2C8 = biological target: T4, CYP2C8 (Homo sapiens, UniProt P10632); assay: biochemical
T4 sequence (P10632 1-490): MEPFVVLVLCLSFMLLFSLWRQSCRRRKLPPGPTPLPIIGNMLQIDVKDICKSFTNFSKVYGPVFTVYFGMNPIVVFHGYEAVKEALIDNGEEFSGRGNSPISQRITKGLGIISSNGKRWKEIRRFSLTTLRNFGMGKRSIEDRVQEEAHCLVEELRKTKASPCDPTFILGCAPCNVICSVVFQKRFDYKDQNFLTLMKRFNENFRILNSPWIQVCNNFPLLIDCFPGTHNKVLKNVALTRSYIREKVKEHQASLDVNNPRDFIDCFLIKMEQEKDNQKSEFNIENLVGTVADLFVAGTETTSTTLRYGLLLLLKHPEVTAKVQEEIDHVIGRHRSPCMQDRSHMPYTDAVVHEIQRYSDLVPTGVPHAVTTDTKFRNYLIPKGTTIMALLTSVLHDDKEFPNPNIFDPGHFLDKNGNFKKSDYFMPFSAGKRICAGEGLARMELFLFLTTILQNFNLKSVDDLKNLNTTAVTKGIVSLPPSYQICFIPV

CYP2D6 [6] = biological target: T1, CYP2D6; assay: in vitro; settings: pooled human liver microsomes, pH 7.4, probe dextromethorphan, % Control activity at, direct inhibition, substrate Dextromethorphan, concentration not given, duplicates
CYP2B6 = biological target: T5, CYP2B6 (Homo sapiens, UniProt P20813); assay: Direct inhibition of CYP2B6 (bupropion) in human liver microsomes
T5 sequence (P20813 1-491): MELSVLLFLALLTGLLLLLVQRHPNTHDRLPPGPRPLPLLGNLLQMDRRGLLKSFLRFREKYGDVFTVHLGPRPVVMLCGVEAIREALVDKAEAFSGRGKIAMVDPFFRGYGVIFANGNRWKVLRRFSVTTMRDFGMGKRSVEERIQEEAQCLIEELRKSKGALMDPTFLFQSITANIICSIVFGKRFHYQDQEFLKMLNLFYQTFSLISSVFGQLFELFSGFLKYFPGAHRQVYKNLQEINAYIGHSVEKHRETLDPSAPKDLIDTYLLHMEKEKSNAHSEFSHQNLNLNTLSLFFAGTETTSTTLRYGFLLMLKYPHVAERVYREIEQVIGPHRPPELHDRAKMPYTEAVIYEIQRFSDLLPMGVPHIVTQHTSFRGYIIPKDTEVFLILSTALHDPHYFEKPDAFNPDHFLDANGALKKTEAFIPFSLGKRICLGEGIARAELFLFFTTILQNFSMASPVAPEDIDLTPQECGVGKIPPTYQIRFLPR

CYP3A4 [7] = biological target: T3, CYP3A4; assay: Direct inhibition of CYP3A4 (midazolam and testosterone) in human liver microsomes; type: in vitro ADME; design: rows headed: % Control activity at; substrate Midazolam; concentration not given; duplicates; % Control activity at; substrate Testosterone; % Remaining; other: direct; CYP3A4-Midazolam Activity; risdiplam 0.20 μM; risdiplam 0.10 μM; dupl; settings: for % Remaining / maximal inhibition: direct; for maximal inhibition: risdiplam tested up to 12.5 μM; for activity: pH 7.4, direct inhibition, read-out: % Control activity at

Cc1cn2nc(-c3cc(=O)n4cc(N5CCNC6(CC6)C5)ccc4n3)cc(C)c2n1 [risdiplam, 7-(4,7-diazaspiro[2.5]octan-7-yl)-2-(2,8-dimethylimidazo[1,2-b]pyridazin-6-yl)pyrido[1,2-a]pyrimidin-4-one]
% Control activity at (CYP2D6 [1]; direct inhibition, substrate Dextromethorphan, concentration not given, duplicates): 95% | reversible (direct) inhibition (in words) (CYP2D6 [1]; risdiplam up to 12.5 μM): did not show any significant reversible or time-dependent inhibition; also recorded: No significant reversible or time-dependent inhibition; also recorded: No significant reversible inhibition; also recorded: low potential to cause direct or time-dependent inhibition | % Control activity at (CYP2C19 [2]; direct inhibition, substrate (S)-Mephenytoin, concentration not given, duplicates): 97% | reversible (direct) inhibition (in words) (CYP2C19 [2]; risdiplam up to 12.5 μM): did not show any significant reversible or time-dependent inhibition; also recorded: No significant reversible or time-dependent inhibition; also recorded: No significant reversible inhibition; also recorded: low potential to cause direct or time-dependent inhibition | activity (CYP2C19 [3]): 102% | time-dependent inhibition (in words) (CYP2C9): did not show any significant reversible or time-dependent inhibition; also recorded: No significant reversible or time-dependent inhibition; also recorded: No significant time-dependent inhibition; also recorded: low potential to cause direct or time-dependent inhibition | % Remaining (CYP3A4 [4]; CYP3A4-Midazolam, minus NADPH, risdiplam pre-incubation 0.10 μM): 88% and 103% | % Remaining (CYP3A4 [4]; CYP3A4-Midazolam, minus NADPH, risdiplam pre-incubation 0.20 μM): 99% and 103% | % Remaining (CYP3A4 [4]; CYP3A4-Midazolam, minus NADPH, risdiplam pre-incubation 0.50 μM): 99% and 108% | % Remaining (CYP3A4 [4]; CYP3A4-Midazolam, minus NADPH, risdiplam pre-incubation 1.3 μM): 99% and 110% | % Remaining (CYP3A4 [4]; CYP3A4-Midazolam, minus NADPH, risdiplam pre-incubation 3.2 μM): 99% and 100% | % Remaining (CYP3A4 [4]; CYP3A4-Midazolam, minus NADPH, risdiplam pre-incubation 8.0 μM): 95% and 106% | % Remaining (CYP3A4 [4]; CYP3A4-Midazolam, minus NADPH, risdiplam pre-incubation 12.5 μM): 115% and 108% | % Remaining (CYP3A4 [4]; CYP3A4-Midazolam, plus NADPH, risdiplam pre-incubation 0.10 μM): 101% and 105% | % Remaining (CYP3A4 [4]; CYP3A4-Midazolam, plus NADPH, risdiplam pre-incubation 0.20 μM): 101% and 109% | % Remaining (CYP3A4 [4]; CYP3A4-Midazolam, plus NADPH, risdiplam pre-incubation 0.50 μM): 94% and 109% | % Remaining (CYP3A4 [4]; CYP3A4-Midazolam, plus NADPH, risdiplam pre-incubation 1.3 μM): 90% and 96% | % Remaining (CYP3A4 [4]; CYP3A4-Midazolam, plus NADPH, risdiplam pre-incubation 3.2 μM): 60% and 64% | % Remaining (CYP3A4 [4]; CYP3A4-Midazolam, plus NADPH, risdiplam pre-incubation 8.0 μM): 28% and 30% | % Remaining (CYP3A4 [4]; CYP3A4-Midazolam, plus NADPH, risdiplam pre-incubation 12.5 μM): 22% and 21% | % Remaining (CYP3A4 [4]; CYP3A4-Testosterone, minus NADPH, risdiplam pre-incubation 0.10 μM): 101% and 99% | % Remaining (CYP3A4 [4]; CYP3A4-Testosterone, minus NADPH, risdiplam pre-incubation 0.20 μM): 94% and 93% | % Remaining (CYP3A4 [4]; CYP3A4-Testosterone, minus NADPH, risdiplam pre-incubation 0.50 μM): 100% and 93% | % Remaining (CYP3A4 [4]; CYP3A4-Testosterone, minus NADPH, risdiplam pre-incubation 1.3 μM): 102% and 95% | % Remaining (CYP3A4 [4]; CYP3A4-Testosterone, minus NADPH, risdiplam pre-incubation 3.2 μM): 93% and 102% | % Remaining (CYP3A4 [4]; CYP3A4-Testosterone, minus NADPH, risdiplam pre-incubation 8.0 μM): 90% and 88% | % Remaining (CYP3A4 [4]; CYP3A4-Testosterone, minus NADPH, risdiplam pre-incubation 12.5 μM): 89% | % Remaining (CYP3A4 [4]; CYP3A4-Testosterone, plus NADPH, risdiplam pre-incubation 0.10 μM): 97% and 95% | % Remaining (CYP3A4 [4]; CYP3A4-Testosterone, plus NADPH, risdiplam pre-incubation 0.20 μM): 98% and 93% | % Remaining (CYP3A4 [4]; CYP3A4-Testosterone, plus NADPH, risdiplam pre-incubation 0.50 μM): 94% and 92% | % Remaining (CYP3A4 [4]; CYP3A4-Testosterone, plus NADPH, risdiplam pre-incubation 1.3 μM): 90% and 85% | % Remaining (CYP3A4 [4]; CYP3A4-Testosterone, plus NADPH, risdiplam pre-incubation 3.2 μM): 63% and 62% | % Remaining (CYP3A4 [4]; CYP3A4-Testosterone, plus NADPH, risdiplam pre-incubation 8.0 μM): 23% and 24% | % Remaining (CYP3A4 [4]; CYP3A4-Testosterone, plus NADPH, risdiplam pre-incubation 12.5 μM): 13% | IC50 (CYP3A4 [4]; pH 7.4, IC50, CYP3A4-Midazolam Inactivation, minus NADPH): > 12.5 µM | IC50 (CYP3A4 [4]; pH 7.4, IC50, CYP3A4-Midazolam Inactivation, plus NADPH): 4.8 µM | IC50 (CYP3A4 [4]; pH 7.4, IC50, CYP3A4-Testosterone Inactivation, minus NADPH): > 12.5 µM | IC50 (CYP3A4 [4]; pH 7.4, IC50, CYP3A4-Testosterone Inactivation, plus NADPH): 4.1 µM | IC50 (CYP2C19 [5]): > 12.5 µM | IC50 (CYP2C8): > 12.5 µM | activity (CYP2D6 [6]): 97% | % Control activity at (CYP2B6; direct inhibition, substrate Bupropion, concentration not given, duplicates): 94% | reversible (direct) inhibition (in words) (CYP2B6; risdiplam up to 12.5 μM): did not show any significant reversible or time-dependent inhibition; also recorded: No significant reversible or time-dependent inhibition; also recorded: No significant reversible inhibition; also recorded: low potential to cause direct or time-dependent inhibition | % Control activity at (CYP3A4 [7]; direct inhibition, substrate Testosterone, concentration not given, duplicates): 46% | % Remaining (CYP3A4 [7]; CYP3A4-Midazolam Activity, risdiplam 0.10 μM, duplicates): 100% and 96% | % Remaining (CYP3A4 [7]; CYP3A4-Midazolam Activity, risdiplam 0.20 μM, duplicates): 99% and 102% | % Remaining (CYP3A4 [7]; CYP3A4-Midazolam Activity, risdiplam 0.50 μM, duplicates): 101% and 100% | % Remaining (CYP3A4 [7]; CYP3A4-Midazolam Activity, risdiplam 1.3 μM, duplicates): 108% and 91% | % Remaining (CYP3A4 [7]; CYP3A4-Midazolam Activity, risdiplam 3.2 μM, duplicates): 94% and 97% | % Remaining (CYP3A4 [7]; CYP3A4-Midazolam Activity, risdiplam 8.0 μM, duplicates): 84% and 83% | % Remaining (CYP3A4 [7]; CYP3A4-Midazolam Activity, risdiplam 12.5 μM, duplicates): 72% | % Remaining (CYP3A4 [7]; CYP3A4-Testosterone Activity, risdiplam 0.10 μM, duplicates): 98% | % Remaining (CYP3A4 [7]; CYP3A4-Testosterone Activity, risdiplam 0.20 μM, duplicates): 98% and 96% | % Remaining (CYP3A4 [7]; CYP3A4-Testosterone Activity, risdiplam 0.50 μM, duplicates): 96% and 95% | % Remaining (CYP3A4 [7]; CYP3A4-Testosterone Activity, risdiplam 1.3 μM, duplicates): 93% and 92% | % Remaining (CYP3A4 [7]; CYP3A4-Testosterone Activity, risdiplam 3.2 μM, duplicates): 78% and 79% | % Remaining (CYP3A4 [7]; CYP3A4-Testosterone Activity, risdiplam 8.0 μM, duplicates): 58% | % Remaining (CYP3A4 [7]; CYP3A4-Testosterone Activity, risdiplam 12.5 μM, duplicates): 44% and 46% | maximal inhibition (CYP3A4 [7]; midazolam as substrate): 28% | maximal inhibition (CYP3A4 [7]; testosterone as substrate): 55% | IC50 (CYP3A4 [7]; human, microsomes, pH 7.4, IC50, direct, CYP3A4-Testosterone Activity (6β-hydroxylation), testosterone 50 μM): 11 µM | activity (CYP3A4 [7]; human, microsomes, substrate Midazolam, concentration not given, duplicates): 72% | activity (CYP3A4 [7]; human, microsomes, substrate Testosterone, concentration not given, duplicates): 44% | direct inhibition of CYP3A4/5 (in words) (CYP3A4 [7]; midazolam 1′-hydroxylase and testosterone 6β-hydroxylase, up to 12.5 μM): low potential to cause direct inhibition; also recorded: some inhibition
